No end group written: not given here.
What was measured:
[1] = test system: fetal rat osteoblast-like cells; assay: Osteoblast proliferation assay, cell counts; assay type: cell-based; settings: for cell number relative to control osteoblasts: primary cultures of osteoblasts, final concentration of 1 nm
Experimental: (§1) Osteoblasts were isolated by collagenase digestion from 20-day fetal rat calvariae. The calvariae were then treated twice with phosphate buffered saline (PBS; Gibco, Grand Island, N.Y.) containing 3 Mm […] (EDTA; Sigma Chemical Co., St. Louis, Mo.) for 15 minutes at 37° C. in a shaking water bath. After washing once in PBS, 3 ml of 1 mg/ml collagenase (Sigma Chemical Co.) was added to the calvariae for 10 minutes at 37° C. After discarding the supernatant, the calvariae were treated twice with 2 mg/ml collagenase (30 mins, 37° C.). The supernatants were then centrifuged and the cells washed in Dulbecco's Modified Eagle's Medium (DMEM; Gibco Labs, Grand Island, N.Y.) with 10% fetal calf serum (FCS), suspended in further DMEM/10% FCS, and placed in […] flasks. The cells were incubated under 5% CO2 and 95% air at 37° C.
(§2) Confluence was reached by 5-6 days, at which time the cells were subcultured. After trypsinization using trypsin-EDTA (0.05%/0.53 […]; Gibco Labs, Grand Island, N.Y.), the cells were rinsed in Minimal Essential Medium (MEM; Gibco Labs) with 10% FCS and resuspended in MEM with 5% FCS, then seeded (10^5 cells/ml) in 24-well plates (0.5 ml cell suspension per well, i.e., 5×10^4 cells/well)
(§3) Cell proliferation studies (i.e., cell counts and thymidine incorporation) were performed both in actively-growing and growth-arrested cell populations. To produce actively-growing cells, subconfluent populations (24 hrs after subculturing) were changed to fresh MEM which contained 1% FCS and the test compounds. To produce growth-arrested cells, subconfluent populations were changed to serum-free medium with 0.1% bovine serum albumin plus the test compounds.
The effect of adrenomedullin on proliferation of fetal rat osteoblast-like cells was first assessed by the measurement of cell numbers. Cell counts were analyzed at 6, 24, and 48 hours after addition of the test compound or vehicle. The cell numbers were determined after removing cells from the wells by exposure to trypsin/EDTA (0.05%/0.53 Mm) for 5 minutes at 37° C. Counting was performed in a hemocytometer chamber. Results were expressed per well. […] This stimulation was maintained for at least 48 hours.

[2] = test system: fetal rat osteoblast-like cells; assay: DNA synthesis, [3H]-thymidine incorporation into osteoblasts; assay type: cell-based; settings: for thymidine incorporation: primary cultures of osteoblasts, 1 nm; for [3H]-thymidine incorporation: 10^−10M, 24 hours
Experimental: as §1, §2, §3
The effect of adrenomedullin on DNA synthesis in osteoblasts was then assessed by the measurement of [^3H]-thymidine incorporation into isolated fetal rat osteoblast-like cells. [^3H]-thymidine incorporation into actively-growing and growth-arrested cells was assessed by pulsing the cells with [^3H]-thymidine (1 μCi/ml) (Amersham, Arlington Heights, Ill.) two hours before the end of the experimental incubation. The experiment was terminated at 6, 24, or 48 hours by washing the cells in MEM with cold thymidine followed by 10% trichloroacetic acid. The precipitate was washed twice with ethanol:ether (3:1), and the wells were desiccated at room temperature. The residue was redissolved in 0.5 M KOH at 85° C. for 30 mins, neutralized with 1 M Hcl, and an aliquot counted for radioactivity. Results were expressed as cpm per well.

[3] = test system: neonatal mouse calvariae; assay: Bone organ culture, bone resorption (45Ca release); assay type: cell-based; settings: 48 hours, concentrations of 10−7 M to 10^−10 M
Experimental: (§4) Bone resorption studies were carried out in neonatal mouse calvariae as previously described (Reid, et al., Endocrinology 126:1416-1420 (1990)). Mice were injected subcutaneously with 5 μCi ^45Ca (Amersham) at 2 days of age, and hemi-calvariae were dissected out 4 days later. Hemi-calvariae were pre-incubated for 24 hours in medium 199 (Gibco BRL, Grand Island, N.Y.) with 0.1% bovine serum albumin, then changed to fresh medium containing adrenomedullin or control vehicle. Incubation was continued for a further 48 hours. In the last 4 hours of incubation [^3H]-thymidine was incorporated into the organ cultures as described previously (Lowe, et al., Calif. Tissue Int. 49-394-397 (1991)). There were 5-7 calvariae in each group.

[4] = test system: neonatal mouse calvariae; assay: Bone organ culture, [3H]-thymidine incorporation; assay type: cell-based; settings: 48 hours, 10−7 M to 10^−10 M, same experiments
Experimental: as §4

[5] = test system: adult mouse calvariae; assay: Local effects on bone histology in vivo, histomorphometry of hemicalvariae
Experimental: The local effects of adrenomedullin on bone histology in vivo were assessed in adult mice using a previously described model (Cornish et al., Endocrinology 132:1359-1366, 1993). Sexually mature male ARC Swiss Webster mice aged between 40 and 50 days and weighing […] were given injections (25 μl) over the periosteum of the right hemicalvariae for 5 consecutive days. […] The animals were maintained on a low calcium diet (0.1%) from 5 days prior to the first injection. […] These doses were chosen based on experience with other bone-active peptides in this model. Animals in the control group (n=16) were injected with vehicle (water) only. All animals were sacrificed 1 week following the last injection. The study had the approval of the local institutional review board.
The calvariae were dissected free of soft tissue, and gross morphology was assessed by examination of the intact calvariae under a dissection microscope. Bone tissue was fixed in 10% phosphate-buffered formalin, dehydrated in a graded series of ethanol solutions and embedded undecalcified in methyl methacrylate resin. Sections (4 μm thick) were cut on a Leitz rotary microtome (Leica Instruments, Nussloch, Germany) using a tungsten-carbide knife, then mounted on gelatin-coated slides and air-dried. The sections were stained with a Goldner tri-chrome stain and examined using an Olympus BX 50 microscope (Olympus Optical Co Ltd, Tokyo, Japan) which was attached to an Osteomeasure Image Analyzer (Osteometrics Inc., Atlanta, Ga.). Histomorphometric analyzes were made of three adjacent fields (using a 20× objective) in each hemicalvaria.
The parameters assessed are as defined by the American Society for Bone and Mineral Research (Parfitt et al. J. Bone Miner. Res. 2:595-610, (1987)), and are expressed per mm of calvarial length. Osteoblasts were defined as cells immediately adjacent to osteoid. Osteoclast numbers included only multinucleated cells. The various surface estimates were based on measurements of both periosteal and intramembranous surfaces: those eroded by osteoclasts (eroded perimeter), those immediately adjacent to osteoclasts (osteoclast perimeter), and those immediately adjacent to osteoblasts (osteoblast perimeter). The precision of these histomorphometric measurements in these studies (expressed as coefficients of variation of paired. measurements) are as follows: mineralized bone area 1.3%, osteoid area 6.9%, osteoblast perimeter 6.8%, osteoblast number 1.7%, eroded perimeter 6.7%, osteoclast perimeter 7.9%, osteoclast number <1.0%, and calvarial length 0.2%. All measurements were made by one operator who was blinded to the treatment group of each bone.
In the in vivo experiment, the primary end-point for each histomorphometric index was the determination of whether it was different in the injected right hemicalvaria from the contralateral, uninjected bone of the same animal. The absolute values of each histomorphometric index are presented for the injected and uninjected hemicalvariae by treatment group in Tables 1-3. […] Tables 1-3. Effects of Adrenomedullin on Histomorphometric Indices in Adult Mouse Calvariae in vivo*

[6] = Injected hemicalvaria, Adrenomedullin 4 × 10^−10 mol, mean, per mm of calvarial length
[7] = Uninjected hemicalvaria, Adrenomedullin 4 × 10^−10 mol, mean, per mm of calvarial length
[8] = in the presence of adrenomedullin

ADM(28-40) (HQIYQFTDKDKDN; listed as Homo sapiens) [adrenomedullin fragment, residues 28-40]
cell number relative to control osteoblasts [1]: statistically significant increase | thymidine incorporation [2]: increased

adrenomedullin
duration for which stimulation of cell number was maintained ([1]; 1% FCS, actively-growing cells): at least 48 hours | adrenomedullin concentration at which a significant increase in cell number was observed ([1]; 24 hours, 1% FCS, actively-growing cells): ≥ 10^−12 M | increase in actively-growing osteoblasts (cell number) ([1]; 24 hours, medium containing 1% FCS, actively-growing cells): dose-dependent increase | [3H]-thymidine incorporation ([2]; actively-growing cells): significantly stimulated | [3H]-thymidine incorporation ([2]; growth-arrested cells): significantly stimulated | 45Ca release from prelabeled calvariae [3]: no significant change | [3H]-thymidine incorporation [4]: significantly increased | Bone Area [5, 6]: 0.128 | Eroded Pm [5, 6]: 0.67 | Number of Obs [5, 6]: 105 | Number of Ocs [5, 6]: 5.0 | Ob Perimeter [5, 6]: 0.33 | Oc Pm [5, 6]: 0.15 | Osteoid Area [5, 6]: 0.0032 | Periosteal Area [5, 6]: 0.012 | Periosteal Area ([5]; P=0.54): not changed | Bone Area [5, 7]: 0.114 | Eroded Pm [5, 7]: 0.67 | Number of Obs [5, 7]: 61 | Number of Ocs [5, 7]: 4.4 | Ob Perimeter [5, 7]: 0.56 | Oc Pm [5, 7]: 0.12 | Osteoid Area [5, 7]: 0.0012 | Periosteal Area [5, 7]: 0.011 | indices of osteoblast activity, ratio of injected to uninjected halves of each calvaria ([5]; either dose of adrenomedullin, 5 daily local injections): two- to three-fold increases | increase of mineralized bone area ([5]; higher dose of adrenomedullin): 13.6% | eroded perimeter, upward trend, ratio of injected to uninjected [5, 8]: significant | resorption indices, ratio of injected to uninjected [5, 8]: slight upward trends

adrenomedullin(27-52) (AHQIYQFTDKDKDNVAPRSKISPQGY-NH2; listed as Homo sapiens) [fragment of adrenomedullin, residues 27-52, carboxyl terminal amidated]
cell number relative to control osteoblasts [1]: statistically significant increase | thymidine incorporation [2]: increased

ADM(32-52) (QFTDKDKDNVAPRSKISPQGY; listed as Homo sapiens) [adrenomedullin fragment, residues 32-52]
cell number relative to control osteoblasts [1]: statistically significant increase | thymidine incorporation [2]: increased
